From ChEMBL document CHEMBL4145687, “Novel Scaffolds for Dual Specificity Tyrosine-Phosphorylation-Regulated Kinase (DYRK1A) Inhibitors” (J Med Chem, 2018)
Calls of active or inactive are those of the source. The rule behind the calls is not given here.

What was measured:
[1] = target: T1, Dual specificity tyrosine-phosphorylation-regulated kinase 1A (Homo sapiens, UniProt Q13627); assay: Inhibition of EGFP-tagged DYRK1A (unknown origin) expressed in human NCI-H1299 cells expressing FLAG-tagged tau assessed as reduction in tau T212 phosphorylation at 1 to 10 uM incubated for 2 hrs by Western blot analysis; assay type: cell-based
[2] = target: T1, Dual specificity tyrosine-phosphorylation-regulated kinase 1A; assay: Inhibition of DYRK1A (unknown origin) using DYRKtide as substrate by ATP regenerative NADH consuming assay
[3] = target: T1, Dual specificity tyrosine-phosphorylation-regulated kinase 1A; assay: Inhibition of DYRK1A (unknown origin) assessed as remaining enzyme activity at 20 uM using DYRKtide as substrate by ATP regenerative NADH consuming assay
[4] = target: T1, Dual specificity tyrosine-phosphorylation-regulated kinase 1A; assay: Inhibition of human DYRK1A expressed in HEK293 cells assessed as compound concentration causing 1.5 fold […] by NFAT response element-driven luciferase reporter gene assay relative to basal level; assay type: cell-based
[5] = target: Dual specificity protein kinase CLK2 (Homo sapiens) (UniProt P49760); assay: Inhibition of human CLK2 expressed in bacterial expression system at 10 uM
[6] = target: Platelet-derived growth factor receptor beta (Homo sapiens) (UniProt P09619); assay: Inhibition of human PDGFRbeta expressed in bacterial expression system at 10 uM
[7] = target: Platelet-derived growth factor receptor alpha (Homo sapiens) (UniProt P16234); assay: Inhibition of human PDGFRalpha expressed in mammalian expression system at 10 uM
[8] = target: Tyrosine-protein kinase ABL1 (Homo sapiens) (UniProt P00519); assay: Inhibition of human ABL1 at 10 uM
[9] = target: Homeodomain-interacting protein kinase 1 (Homo sapiens) (UniProt Q86Z02); assay: Inhibition of human HIPK1 expressed in mammalian expression system at 10 uM
[10] = target: Cyclin-dependent kinase 7 (Homo sapiens) (UniProt P50613); assay: Inhibition of human CDK7 expressed in mammalian expression system at 10 uM
[11] = target: Homeodomain-interacting protein kinase 2 (Homo sapiens) (UniProt Q9H2X6); assay: Inhibition of human HIPK2 expressed in mammalian expression system at 10 uM
[12] = target: Glycogen synthase kinase-3 beta (Homo sapiens) (UniProt P49841); assay: Inhibition of human GSK3beta expressed in mammalian expression system at 10 uM
[13] = target: Phosphatidylinositol 4-kinase beta (Homo sapiens) (UniProt Q9UBF8); assay: Inhibition of human PIK4CB expressed in mammalian expression system at 1 uM
[14] = target: Glycogen synthase kinase-3 beta (Homo sapiens) (UniProt P49841); assay: Inhibition of human GSK3beta expressed in mammalian expression system at 1 uM
[15] = target: Dual specificity tyrosine-phosphorylation-regulated kinase 1B (Homo sapiens) (UniProt Q9Y463); assay: Inhibition of human DYRK1B expressed in bacterial expression system at 1 uM
[16] = target: Dual specificity protein kinase CLK3 (Homo sapiens) (UniProt P49761); assay: Inhibition of human CLK3 expressed in bacterial expression system at 1 uM
[17] = target: Dual specificity protein kinase CLK1 (Homo sapiens) (UniProt P49759); assay: Inhibition of human CLK1 expressed in bacterial expression system at 1 uM
[18] = target: Glycogen synthase kinase-3 alpha (Homo sapiens) (UniProt P49840); assay: Inhibition of human GSK3A expressed in bacterial expression system at 1 uM
[19] = target: Serine/threonine-protein kinase mTOR (Homo sapiens) (UniProt P42345); assay: Inhibition of human mTOR expressed in mammalian expression system at 10 uM
[20] = target: Phosphatidylinositol 4,5-bisphosphate 3-kinase catalytic subunit gamma isoform (Homo sapiens) (UniProt P48736); assay: Inhibition of human PIK3CG expressed in mammalian expression system at 1 uM
[21] = target: T1, Dual specificity tyrosine-phosphorylation-regulated kinase 1A; assay: Inhibition of human DYRK1A expressed in HEK293 cells assessed as […] at 0.1 uM by NFAT response element-driven luciferase reporter gene assay relative to harmine; assay type: cell-based
[22] = target: T1, Dual specificity tyrosine-phosphorylation-regulated kinase 1A; assay: Inhibition of human DYRK1A expressed in mammalian expression system at 1 uM
[23] = target: T2, Serine/threonine-protein kinase 17A (Homo sapiens) (UniProt Q9UEE5); assay: Inhibition of human DRAK1 expressed in bacterial expression system at 10 uM
T2 sequence (whole entry): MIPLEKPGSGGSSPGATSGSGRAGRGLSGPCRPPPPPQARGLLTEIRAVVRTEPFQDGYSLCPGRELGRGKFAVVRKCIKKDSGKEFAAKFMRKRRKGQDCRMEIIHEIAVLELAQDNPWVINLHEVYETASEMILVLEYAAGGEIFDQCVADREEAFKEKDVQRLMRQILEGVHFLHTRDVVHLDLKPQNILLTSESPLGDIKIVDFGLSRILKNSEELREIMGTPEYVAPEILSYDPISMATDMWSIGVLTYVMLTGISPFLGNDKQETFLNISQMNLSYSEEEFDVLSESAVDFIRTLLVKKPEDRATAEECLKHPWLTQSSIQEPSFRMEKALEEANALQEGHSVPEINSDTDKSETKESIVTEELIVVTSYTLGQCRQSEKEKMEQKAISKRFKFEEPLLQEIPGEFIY

[24] = target: Mitogen-activated protein kinase 7 (Homo sapiens) (UniProt Q13164); assay: Inhibition of human ERK5 expressed in bacterial expression system at 10 uM
[25] = target: T3, Serine/threonine-protein kinase 17B (Homo sapiens) (UniProt O94768); assay: Inhibition of human DRAK2 expressed in bacterial expression system at 10 uM
T3 sequence (whole entry): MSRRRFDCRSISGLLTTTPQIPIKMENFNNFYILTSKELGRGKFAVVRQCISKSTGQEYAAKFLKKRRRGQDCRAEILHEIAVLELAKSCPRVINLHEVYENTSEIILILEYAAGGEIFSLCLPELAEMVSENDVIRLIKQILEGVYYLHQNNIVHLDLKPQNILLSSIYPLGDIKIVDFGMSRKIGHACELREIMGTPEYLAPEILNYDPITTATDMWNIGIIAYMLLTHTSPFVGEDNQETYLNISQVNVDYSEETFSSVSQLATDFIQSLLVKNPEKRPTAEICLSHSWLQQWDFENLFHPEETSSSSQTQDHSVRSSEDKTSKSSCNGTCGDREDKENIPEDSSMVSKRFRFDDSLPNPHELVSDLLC

[26] = target: T1, Dual specificity tyrosine-phosphorylation-regulated kinase 1A; assay: Inhibition of human DYRK1A expressed in HEK293 cells assessed as […] at 1 uM by NFAT response element-driven luciferase reporter gene assay relative to harmine; assay type: cell-based

Chain of Dual specificity protein kinase CLK2 (Homo sapiens) (P49760 whole entry, looked up): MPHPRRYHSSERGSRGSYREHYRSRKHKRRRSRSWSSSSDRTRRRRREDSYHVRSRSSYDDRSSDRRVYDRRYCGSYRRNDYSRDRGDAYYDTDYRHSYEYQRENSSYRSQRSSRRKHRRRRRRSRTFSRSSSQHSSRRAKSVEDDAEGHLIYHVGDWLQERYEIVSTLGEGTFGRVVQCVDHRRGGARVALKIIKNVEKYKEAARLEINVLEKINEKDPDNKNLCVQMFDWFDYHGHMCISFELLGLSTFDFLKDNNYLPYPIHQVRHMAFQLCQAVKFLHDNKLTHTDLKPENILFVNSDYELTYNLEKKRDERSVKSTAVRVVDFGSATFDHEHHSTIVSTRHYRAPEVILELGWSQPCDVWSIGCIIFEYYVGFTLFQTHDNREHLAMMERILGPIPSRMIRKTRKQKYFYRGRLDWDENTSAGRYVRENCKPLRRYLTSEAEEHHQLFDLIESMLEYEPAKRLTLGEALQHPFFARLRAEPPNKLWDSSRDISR
Chain of Glycogen synthase kinase-3 beta (Homo sapiens) (P49841 whole entry, looked up): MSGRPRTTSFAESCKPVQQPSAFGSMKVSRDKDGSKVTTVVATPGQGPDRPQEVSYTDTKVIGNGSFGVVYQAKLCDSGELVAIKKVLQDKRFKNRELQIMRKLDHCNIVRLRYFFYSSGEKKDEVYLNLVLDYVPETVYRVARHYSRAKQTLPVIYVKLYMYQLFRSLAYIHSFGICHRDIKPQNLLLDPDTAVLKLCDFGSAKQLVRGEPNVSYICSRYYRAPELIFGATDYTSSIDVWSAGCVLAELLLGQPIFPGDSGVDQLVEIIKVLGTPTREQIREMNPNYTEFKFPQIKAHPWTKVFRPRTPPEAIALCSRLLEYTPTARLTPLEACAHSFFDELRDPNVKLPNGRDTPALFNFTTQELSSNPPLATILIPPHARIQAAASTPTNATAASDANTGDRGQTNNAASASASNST
Chain of Dual specificity protein kinase CLK1 (Homo sapiens) (P49759 whole entry, looked up): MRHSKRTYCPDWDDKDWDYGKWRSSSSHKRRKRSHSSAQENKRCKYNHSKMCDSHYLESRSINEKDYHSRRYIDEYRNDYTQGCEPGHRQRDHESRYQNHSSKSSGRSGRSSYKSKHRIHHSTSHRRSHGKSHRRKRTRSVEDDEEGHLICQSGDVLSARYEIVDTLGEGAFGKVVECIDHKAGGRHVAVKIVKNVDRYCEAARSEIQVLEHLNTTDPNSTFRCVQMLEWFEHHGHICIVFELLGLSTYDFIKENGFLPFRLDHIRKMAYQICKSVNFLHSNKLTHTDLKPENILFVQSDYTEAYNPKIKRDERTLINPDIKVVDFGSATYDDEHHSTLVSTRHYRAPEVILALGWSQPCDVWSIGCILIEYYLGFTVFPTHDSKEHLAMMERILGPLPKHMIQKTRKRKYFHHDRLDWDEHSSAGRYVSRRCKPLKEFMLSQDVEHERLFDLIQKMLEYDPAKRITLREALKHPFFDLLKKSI
Chain of Dual specificity tyrosine-phosphorylation-regulated kinase 1B (Homo sapiens) (Q9Y463 whole entry, looked up): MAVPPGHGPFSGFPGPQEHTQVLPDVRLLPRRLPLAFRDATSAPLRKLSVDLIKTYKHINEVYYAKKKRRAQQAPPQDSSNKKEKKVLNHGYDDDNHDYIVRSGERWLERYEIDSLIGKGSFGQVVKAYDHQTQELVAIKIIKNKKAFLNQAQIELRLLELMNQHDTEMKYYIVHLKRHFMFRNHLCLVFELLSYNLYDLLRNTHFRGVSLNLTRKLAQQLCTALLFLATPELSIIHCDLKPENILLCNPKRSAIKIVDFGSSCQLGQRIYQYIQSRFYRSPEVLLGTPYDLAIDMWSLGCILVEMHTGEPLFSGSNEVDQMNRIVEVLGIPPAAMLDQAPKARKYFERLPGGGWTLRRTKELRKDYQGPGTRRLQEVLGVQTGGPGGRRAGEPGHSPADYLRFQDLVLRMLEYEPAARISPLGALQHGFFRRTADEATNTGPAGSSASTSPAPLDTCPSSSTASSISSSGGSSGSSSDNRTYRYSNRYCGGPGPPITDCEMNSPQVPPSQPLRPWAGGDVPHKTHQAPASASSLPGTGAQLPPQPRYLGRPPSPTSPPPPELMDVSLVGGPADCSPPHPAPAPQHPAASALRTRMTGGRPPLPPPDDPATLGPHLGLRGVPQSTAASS
Chain of Platelet-derived growth factor receptor beta (Homo sapiens) (P09619 whole entry): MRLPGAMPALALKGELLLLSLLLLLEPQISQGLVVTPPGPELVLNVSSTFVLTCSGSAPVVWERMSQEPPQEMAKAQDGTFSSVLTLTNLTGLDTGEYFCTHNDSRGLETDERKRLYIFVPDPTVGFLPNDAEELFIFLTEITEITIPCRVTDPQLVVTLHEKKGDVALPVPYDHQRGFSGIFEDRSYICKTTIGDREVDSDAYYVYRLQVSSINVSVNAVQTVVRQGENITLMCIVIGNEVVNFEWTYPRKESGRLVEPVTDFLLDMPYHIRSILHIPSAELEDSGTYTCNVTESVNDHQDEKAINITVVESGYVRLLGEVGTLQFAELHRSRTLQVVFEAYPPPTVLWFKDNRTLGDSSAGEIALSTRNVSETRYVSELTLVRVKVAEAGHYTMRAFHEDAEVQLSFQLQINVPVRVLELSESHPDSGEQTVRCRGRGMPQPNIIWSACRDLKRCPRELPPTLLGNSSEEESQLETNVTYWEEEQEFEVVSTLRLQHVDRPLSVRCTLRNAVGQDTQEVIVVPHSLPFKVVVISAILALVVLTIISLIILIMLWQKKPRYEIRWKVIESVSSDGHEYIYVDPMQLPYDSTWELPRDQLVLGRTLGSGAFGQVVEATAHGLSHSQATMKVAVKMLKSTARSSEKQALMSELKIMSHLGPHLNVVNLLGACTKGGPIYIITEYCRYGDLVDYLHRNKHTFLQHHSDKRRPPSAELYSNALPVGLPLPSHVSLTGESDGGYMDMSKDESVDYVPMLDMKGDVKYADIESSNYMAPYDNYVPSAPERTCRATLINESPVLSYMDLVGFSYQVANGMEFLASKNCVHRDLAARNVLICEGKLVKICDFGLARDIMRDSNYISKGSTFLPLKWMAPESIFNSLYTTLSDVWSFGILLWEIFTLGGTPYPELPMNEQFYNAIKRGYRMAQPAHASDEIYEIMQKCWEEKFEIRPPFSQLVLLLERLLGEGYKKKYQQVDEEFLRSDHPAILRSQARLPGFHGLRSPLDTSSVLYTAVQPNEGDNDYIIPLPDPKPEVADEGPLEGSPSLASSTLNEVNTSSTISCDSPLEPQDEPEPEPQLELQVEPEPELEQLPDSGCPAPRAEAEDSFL
Chain of Glycogen synthase kinase-3 alpha (Homo sapiens) (P49840 2-483 limits assumed): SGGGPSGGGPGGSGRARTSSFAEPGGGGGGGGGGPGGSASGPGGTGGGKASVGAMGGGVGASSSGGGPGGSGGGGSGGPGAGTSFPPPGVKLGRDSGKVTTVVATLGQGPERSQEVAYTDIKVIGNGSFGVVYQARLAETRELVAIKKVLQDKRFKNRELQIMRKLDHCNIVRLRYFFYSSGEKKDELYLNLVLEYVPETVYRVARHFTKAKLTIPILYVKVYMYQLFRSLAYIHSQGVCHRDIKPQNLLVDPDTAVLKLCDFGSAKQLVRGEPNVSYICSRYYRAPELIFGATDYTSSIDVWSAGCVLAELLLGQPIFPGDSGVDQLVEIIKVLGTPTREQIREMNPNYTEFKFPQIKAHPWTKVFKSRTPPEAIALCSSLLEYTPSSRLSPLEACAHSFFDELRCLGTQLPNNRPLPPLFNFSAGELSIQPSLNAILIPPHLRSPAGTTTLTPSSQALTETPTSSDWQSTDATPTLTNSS
Chain of Tyrosine-protein kinase ABL1 (Homo sapiens) (P00519 whole entry): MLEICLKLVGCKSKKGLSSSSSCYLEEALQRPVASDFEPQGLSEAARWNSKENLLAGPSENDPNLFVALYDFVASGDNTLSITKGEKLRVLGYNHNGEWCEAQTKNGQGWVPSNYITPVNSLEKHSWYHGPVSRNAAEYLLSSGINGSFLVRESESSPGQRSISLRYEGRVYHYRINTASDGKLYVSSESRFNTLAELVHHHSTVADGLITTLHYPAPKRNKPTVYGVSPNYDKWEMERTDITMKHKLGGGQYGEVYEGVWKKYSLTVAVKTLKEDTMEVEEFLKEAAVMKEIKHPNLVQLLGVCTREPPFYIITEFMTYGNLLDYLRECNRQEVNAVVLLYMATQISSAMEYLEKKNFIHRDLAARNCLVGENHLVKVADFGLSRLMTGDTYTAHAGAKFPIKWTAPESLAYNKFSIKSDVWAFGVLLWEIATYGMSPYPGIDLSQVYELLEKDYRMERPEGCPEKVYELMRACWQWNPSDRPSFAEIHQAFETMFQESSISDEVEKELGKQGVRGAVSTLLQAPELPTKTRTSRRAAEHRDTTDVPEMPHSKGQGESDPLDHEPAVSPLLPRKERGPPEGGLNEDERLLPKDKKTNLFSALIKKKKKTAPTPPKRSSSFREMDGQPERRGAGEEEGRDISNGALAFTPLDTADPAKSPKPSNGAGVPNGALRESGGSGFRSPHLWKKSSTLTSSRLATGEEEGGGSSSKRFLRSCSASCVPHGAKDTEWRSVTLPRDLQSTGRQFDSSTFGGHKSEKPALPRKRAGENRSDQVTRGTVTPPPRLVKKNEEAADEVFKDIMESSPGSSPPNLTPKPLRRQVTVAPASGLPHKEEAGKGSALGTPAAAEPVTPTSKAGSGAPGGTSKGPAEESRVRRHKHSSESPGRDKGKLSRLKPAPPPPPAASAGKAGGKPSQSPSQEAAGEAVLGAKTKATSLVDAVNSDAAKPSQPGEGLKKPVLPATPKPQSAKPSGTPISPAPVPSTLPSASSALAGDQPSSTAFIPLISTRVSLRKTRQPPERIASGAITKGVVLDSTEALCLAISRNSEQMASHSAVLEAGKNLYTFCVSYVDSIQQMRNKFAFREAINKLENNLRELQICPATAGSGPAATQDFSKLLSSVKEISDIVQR

SMILES	inhibition [1]	IC50 ([2]; read-out: IC50) [nM]	Ki ([2]; read-out: Ki) [nM]	Activity [3] [%]	Activity [4]	inhibition [5]	further results
COc1cc(N2CCN(C)CC2)ccc1Nc1nc(N)c(C(=O)c2ccccc2)s1	Dose-dependent effect	800	383	1.3	10 to 20 µM	–	–
O=C(NCCN1CCOCC1)Nc1cccc(-c2ccc3nc(NC(=O)C4CC4)sc3n2)c1	Active	3500	1680	11	> 20 µM	Active	inhibition [6]: Active; inhibition [7]: Active; inhibition [8]: Active
COc1ccc(N)cc1-c1cnc(N)c(C(=O)c2cccnc2)n1	Active	> 6000	> 2800	24	5 to 10 µM	Active	inhibition [9]: Active; inhibition [10]: Active; inhibition [11]: Active; inhibition [12]: Active
O=c1ccc2cnc3ccc(-c4cn[nH]c4)cc3c2n1-c1ccc(F)cc1C(F)(F)F	Active	532	252	2	0.05 to 0.1 µM	–	inhibition [13]: Active; inhibition [14]: Active; inhibition [15]: Active; inhibition [16]: Active; inhibition [17]: Active; inhibition [18]: Active; inhibition [19]: Active; inhibition [20]: Active; fold change (FC) [21]: 2; inhibition [22]: Active
Nc1cccc(-c2cnc3[nH]cc(-c4cccnc4)c3c2)c1	Dose-dependent effect	329	158	0	5 to 10 µM	–	–
CN1C(=O)[C@H]2CCC[C@H]2N(C2CCCC2)c2nc(Nc3ccc(C(N)=O)cc3)ncc21	Active	4200	2020	15	0.5 to 1 µM	–	inhibition [23]: Active; inhibition [24]: Active; inhibition [25]: Active; fold change (FC) [26]: 2
NS(=O)(=O)c1ccc(-c2cnc3[nH]cc(-c4cccnc4)c3c2)cc1	Dose-dependent effect	216	104	0	1 to 5 µM	–	inhibition [4]: Dose-dependent effect
C=CC(=O)Nc1ccc(C(=O)c2sc(Nc3ccc(N4CCN(C)CC4)cc3OC)nc2N)cc1	Dose-dependent effect	1200	575	4	inactive	Active	–
C=CC(=O)Nc1cccc(C(=O)c2sc(Nc3ccc(N4CCN(C)CC4)cc3)nc2N)c1	Active	–	–	–	–	Active	IC50 [2]: Nd(Insoluble); Ki [2]: Nd(Insoluble)
